Measurements published in patent US9365613B2, “Acylated 4-amidino- and -4-guanidinobenzylamines for inhibition of plasma kallikrein” (The Medicines Company (Leipzig) GmbH, priority 2003, dated 2016).

What was measured:
Assay type in all cases: biochemical
[1] = target: plasma kallikrein (PK) (Homo sapiens, UniProt P03952); assay: Determining the inhibitory constants: inhibition of PK (substrate Bzl-Pro-Phe-Arg-pNA); conditions: Tris buffer pH 8.0, 25° C.; mean of at least three determinations
Experimental: (§1) The inhibitory effect for the individual enzymes was determined in analogy with a method which has already been described (Stürzebecher et al., J. Med. Chem. 40, 3091-3099, 1997).
(§2) After 3 min, the reaction was terminated by adding 25 μl of acetic acid (50%) and the absorption at […] was determined using a Microplate Reader (Labsystems iEMS Reader MF). The Ki values were determined, in accordance with Dixon (Biochem. J. 55, 170-171, 1953), by means of linear regression and using a computer program. The Ki values are the mean of at least three determinations.

[2] = target: T1, human factor XIa (Homo sapiens, UniProt P03951); assay: Inhibitory constants for factor XIa (substrate H-D-Lys(Z)-Pro-Arg-pNA, Chromozym PCa); conditions: read-out: Ki F XIa
T1 construct: purchased Haemochrom Diagnostica GmbH, Essen, Germany
Experimental: as §1, §2
(§3) The inhibition of factor XIa and factor XIIa was determined in an analogous manner. When determining the inhibitory constants for human factor XIa (Haemochrom Diagnostica GmbH, Essen, Germany), H-D-Lys(Z)-Pro-Arg-pNA (Chromozym PCa, Roche Diagnostics GmbH, Mannheim, Germany) was used as the substrate.

[3] = target: thrombin (UniProt P00735); assay: Inhibitory constants for thrombin; conditions: read-out: Ki Thrombin
[4] = target: T2, human factor XIIa (Homo sapiens, UniProt P00748); assay: Inhibitory constants for factor XIIa (substrate H-D-HHT-Gly-Arg-pNA, Chromozym XII); conditions: read-out: Ki F XIIa
T2 construct: purchased Haemochrom Diagnostica GmbH, Essen, Germany
Experimental: as §1, §2, §3
H-D-HHT-Gly-Arg-pNA (Chromozym XII, Roche Diagnostics GmbH, Mannheim, Germany) was used as the substrate for measuring the inhibitory constants of human factor XIIa (Haemochrom Diagnostica GmbH, Essen, Germany).

Sequence of plasma kallikrein (PK) (P03952 391-638 limits assumed, species assumed): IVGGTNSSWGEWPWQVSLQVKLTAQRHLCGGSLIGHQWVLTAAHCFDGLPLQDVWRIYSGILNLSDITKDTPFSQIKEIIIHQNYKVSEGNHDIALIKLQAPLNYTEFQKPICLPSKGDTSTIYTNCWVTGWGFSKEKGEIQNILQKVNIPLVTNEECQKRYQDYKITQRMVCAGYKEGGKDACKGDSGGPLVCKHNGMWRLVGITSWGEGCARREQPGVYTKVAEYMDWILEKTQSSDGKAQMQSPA
Sequence of plasma kallikrein (PK) (P03952 20-390 partner limits assumed, species assumed): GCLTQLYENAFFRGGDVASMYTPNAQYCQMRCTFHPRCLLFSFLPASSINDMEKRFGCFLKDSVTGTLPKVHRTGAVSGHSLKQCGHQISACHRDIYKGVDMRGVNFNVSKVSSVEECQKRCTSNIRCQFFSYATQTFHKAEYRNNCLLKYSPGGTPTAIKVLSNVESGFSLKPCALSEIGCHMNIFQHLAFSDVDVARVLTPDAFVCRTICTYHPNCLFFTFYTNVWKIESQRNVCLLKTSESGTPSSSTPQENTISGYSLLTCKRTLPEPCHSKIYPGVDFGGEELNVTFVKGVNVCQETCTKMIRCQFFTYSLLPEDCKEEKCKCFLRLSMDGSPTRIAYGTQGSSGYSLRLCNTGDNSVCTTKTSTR
T1 sequence (P03951 388-625 limits assumed): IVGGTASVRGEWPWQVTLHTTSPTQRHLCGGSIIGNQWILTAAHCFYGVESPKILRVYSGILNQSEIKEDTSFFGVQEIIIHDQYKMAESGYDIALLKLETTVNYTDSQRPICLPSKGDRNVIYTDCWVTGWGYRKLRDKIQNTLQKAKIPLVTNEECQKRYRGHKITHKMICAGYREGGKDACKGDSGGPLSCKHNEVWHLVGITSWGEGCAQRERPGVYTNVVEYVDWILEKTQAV
T1 sequence (P03951 19-387 partner limits assumed): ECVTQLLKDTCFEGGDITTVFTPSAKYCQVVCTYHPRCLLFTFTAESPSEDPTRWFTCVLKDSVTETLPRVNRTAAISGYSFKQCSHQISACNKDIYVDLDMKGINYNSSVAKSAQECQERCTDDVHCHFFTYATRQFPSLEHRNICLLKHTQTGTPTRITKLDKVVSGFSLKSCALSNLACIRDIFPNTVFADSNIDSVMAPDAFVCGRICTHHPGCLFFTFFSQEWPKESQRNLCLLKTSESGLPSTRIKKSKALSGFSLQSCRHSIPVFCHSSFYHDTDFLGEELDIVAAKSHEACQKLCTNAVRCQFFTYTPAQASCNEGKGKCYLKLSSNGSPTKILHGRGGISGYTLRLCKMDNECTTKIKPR
T2 sequence (P00748 373-615 limits assumed, other chains not shown): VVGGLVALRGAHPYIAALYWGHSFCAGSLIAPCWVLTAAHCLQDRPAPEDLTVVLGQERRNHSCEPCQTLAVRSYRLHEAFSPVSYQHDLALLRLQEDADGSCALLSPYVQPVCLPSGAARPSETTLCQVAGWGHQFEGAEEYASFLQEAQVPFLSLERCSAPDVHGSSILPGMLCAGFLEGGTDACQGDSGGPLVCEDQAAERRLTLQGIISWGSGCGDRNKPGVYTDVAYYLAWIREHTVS

Structure (SMILES) | Ki [1] | Ki [2] | Ki [3] | Ki [4]
N=C(N)c1ccc(CNC(=O)CNC(=O)C(CO)NS(=O)(=O)Cc2ccccc2)cc1 (centres unmarked) [Inhibitor 1] | 1.7 µM | 2.2 µM | 13 µM | 16 µM
C[C@H](NC(=O)[C@@H](CO)NS(=O)(=O)Cc1ccccc1)C(=O)NCc1ccc(C(=N)N)cc1 [Inhibitor 2] | 0.07 µM | 0.11 µM | 0.11 µM | 9.2 µM
N=C(N)c1ccc(CNC(=O)C2CCCN2C(=O)C(CO)NS(=O)(=O)Cc2ccccc2)cc1 (centres unmarked) [Inhibitor 3] | 0.054 µM | 0.1 µM | 0.012 µM | 5.1 µM
N=C(N)c1ccc(CNC(=O)[C@H](CC(=O)O)NC(=O)[C@@H](CO)NS(=O)(=O)Cc2ccccc2)cc1 [Inhibitor 4] | 3.7 µM |  | > 1000 µM | > 1000 µM
N=C(N)c1ccc(CNC(=O)[C@H](CCC(=O)O)NC(=O)[C@@H](CO)NS(=O)(=O)Cc2ccccc2)cc1 [Inhibitor 5] | 1.1 µM |  | 38 µM | > 1000 µM
N=C(N)c1ccc(CNC(=O)[C@H](CN)NC(=O)[C@@H](CO)NS(=O)(=O)Cc2ccccc2)cc1 [Inhibitor 8] | 0.05 µM | 0.39 µM | 0.65 µM | 15 µM
N=C(N)NCCC[C@H](NC(=O)[C@@H](CO)NS(=O)(=O)Cc1ccccc1)C(=O)NCc1ccc(C(=N)N)cc1 [Inhibitor 12] | 0.079 µM | 0.77 µM | 4.7 µM | 16 µM
C[C@@H](O)[C@H](NC(=O)[C@@H](CO)NS(=O)(=O)Cc1ccccc1)C(=O)NCc1ccc(C(=N)N)cc1 [Inhibitor 13] | 0.24 µM | 0.25 µM | 4 µM | 51 µM
C[C@@H](OCc1ccccc1)[C@H](NC(=O)[C@@H](CO)NS(=O)(=O)Cc1ccccc1)C(=O)NCc1ccc(C(=N)N)cc1 [Inhibitor 14] | 0.091 µM | 0.33 µM | 0.3 µM | 23 µM
N=C(N)c1ccc(CNC(=O)[C@H](CO)NC(=O)[C@@H](CO)NS(=O)(=O)Cc2ccccc2)cc1 [Inhibitor 15] | 0.16 µM | 0.3 µM | 14 µM | 80 µM
N=C(N)c1ccc(CNC(=O)CNC(=O)[C@@H](CO)NS(=O)(=O)Cc2ccc(C(=O)O)cc2)cc1 [Inhibitor 20] | 0.7 µM | 0.6 µM | 170 µM | > 1000 µM
COC(=O)c1ccc(CS(=O)(=O)N[C@H](CO)C(=O)NCC(=O)NCc2ccc(C(=N)N)cc2)cc1 [Inhibitor 21] | 4.2 µM | 8.1 µM | 9.4 µM | 42 µM
COC(=O)c1ccc(CS(=O)(=O)N[C@H](CO)C(=O)N[C@@H](CO)C(=O)NCc2ccc(C(=N)N)cc2)cc1 [Inhibitor 24] | 0.16 µM | 0.87 µM | 4.2 µM | 19 µM
N=C(N)c1ccc(CNC(=O)CNC(=O)[C@@H](CO)NS(=O)(=O)Cc2ccc(CN)cc2)cc1 [Inhibitor 25] | 6.3 µM | 6 µM | 8 µM | 17 µM
N#Cc1cccc(CS(=O)(=O)N[C@H](CC2CCCCC2)C(=O)N2CCC[C@H]2C(=O)NCc2ccc(C(=N)N)cc2)c1 [Inhibitor 52] | 0.086 µM |  | < 0.001 µM | 13 µM
N=C(N)c1ccc(CNC(=O)[C@H](CCC(=O)O)NC(=O)[C@@H](CCc2ccc(O)cc2)NS(=O)(=O)Cc2ccccc2)cc1 [Inhibitor 72] | 0.22 µM | 0.028 µM |  | 0.36 µM
N=C(N)c1ccc(CNC(=O)[C@H](CO)NC(=O)[C@@H](CCc2ccc(O)cc2)NS(=O)(=O)Cc2ccccc2)cc1 [Inhibitor 73] | 0.13 µM | 0.078 µM |  | 0.28 µM
N=C(N)c1ccc(CNC(=O)CNC(=O)[C@@H](CCc2ccc(O)cc2)NS(=O)(=O)Cc2ccccc2)cc1 [Inhibitor 75] | 0.12 µM | 0.61 µM |  | 0.78 µM
N=C(N)c1ccc(CNC(=O)CNC(=O)[C@@H](CCc2ccccc2)NS(=O)(=O)Cc2ccccc2)cc1 [Inhibitor 76] | 0.39 µM | 0.27 µM |  | 0.15 µM
N=C(N)c1ccc(CNC(=O)CNC(=O)[C@H](NS(=O)(=O)Cc2ccccc2)C2Cc3ccccc3C2)cc1 [Inhibitor 83] | 0.075 µM |  | 0.14 µM | 0.37 µM
N=C(N)c1ccc(CNC(=O)CNC(=O)C(CCc2ccncc2)NS(=O)(=O)Cc2ccccc2)cc1 (centres unmarked) [Inhibitor 85] | 0.13 µM | 1.1 µM |  | 0.4 µM
N=C(N)c1ccc(CNC(=O)[C@H](CCCCNC(=O)CCCC(=O)O)NC(=O)[C@@H](CO)NS(=O)(=O)Cc2ccccc2)cc1 [Inhibitor 86] | 0.39 µM |  | 2.8 µM | 

Compounds with a lower Ki [1], results first:

Ki [1] | Ki [2] | Ki [3] | Ki [4] | Structure (SMILES)
0.048 µM | 0.084 µM | 1.2 µM | 2.8 µM | N=C(N)c1ccc(CNC(=O)[C@H](CCc2ccccc2)NC(=O)[C@@H](CO)NS(=O)(=O)Cc2ccccc2)cc1 [Inhibitor 19]
0.047 µM | 0.13 µM | 0.49 µM | 25 µM | N=C(N)c1ccc(CNC(=O)[C@H](CCC(N)=O)NC(=O)[C@@H](CO)NS(=O)(=O)Cc2ccccc2)cc1 [Inhibitor 6]
0.045 µM | 0.12 µM |  | 0.26 µM | N=C(N)c1ccc(CNC(=O)CNC(=O)[C@@H](CCc2ccccc2)NS(=O)(=O)Cc2ccc(N)cc2)cc1 [Inhibitor 78]
0.042 µM | 0.28 µM | 6.9 µM | 13 µM | N=C(N)c1ccc(CNC(=O)[C@H](CNC(=O)OCc2ccccc2)NC(=O)[C@@H](CO)NS(=O)(=O)Cc2ccccc2)cc1 [Inhibitor 9]
0.032 µM |  | 0.044 µM | 14 µM | C[C@@H](O)[C@H](NC(=O)[C@@H](COC(C)(C)C)NS(=O)(=O)Cc1ccccc1)C(=O)NCc1ccc(C(=N)N)cc1 [Inhibitor 38]
0.029 µM | 0.17 µM | 120 µM | > 1000 µM | N=C(N)c1ccc(CNC(=O)[C@H](CO)NC(=O)[C@@H](CO)NS(=O)(=O)Cc2ccc(C(=O)O)cc2)cc1 [Inhibitor 23]
0.029 µM |  | 2.2 µM | 7.5 µM | CC(C)(C)OC[C@@H](NS(=O)(=O)Cc1ccc(C(=O)O)cc1)C(=O)NCC(=O)NCc1ccc(C(=N)N)cc1 [Inhibitor 46]
0.029 µM |  | 0.0021 µM | 11 µM | N=C(N)c1ccc(CNC(=O)[C@H](CCCCNC(=O)CCC(=O)O)NC(=O)[C@@H](CC2CCCCC2)NS(=O)(=O)Cc2ccccc2)cc1 [Inhibitor 71]
0.025 µM | 0.3 µM | 0.48 µM | 9.8 µM | N=C(N)c1ccc(CNC(=O)[C@H](COCc2ccccc2)NC(=O)[C@@H](CO)NS(=O)(=O)Cc2ccccc2)cc1 [Inhibitor 16]
0.025 µM |  | 0.0023 µM | 2.4 µM | CC(C)(C)OC[C@@H](NS(=O)(=O)Cc1ccc(C(=O)O)cc1)C(=O)N1CCC[C@H]1C(=O)NCc1ccc(C(=N)N)cc1 [Inhibitor 70]
0.021 µM | 0.92 µM | 1.6 µM | 0.97 µM | N=C(N)c1ccc(CNC(=O)[C@H](Cc2ccccc2)NC(=O)[C@@H](CO)NS(=O)(=O)Cc2ccccc2)cc1 [Inhibitor 18]
0.02 µM |  | 8.5 µM | > 1000 µM | N=C(N)c1ccc(CNC(=O)C[C@H](CO)NC(=O)[C@@H](CO)NS(=O)(=O)Cc2ccccc2)cc1 [Inhibitor 17]
0.02 µM |  | 0.91 µM | 1.6 µM | N=C(N)c1ccc(CNC(=O)[C@H](CO)NC(=O)[C@@H](CCc2ccncc2)NS(=O)(=O)Cc2ccccc2)cc1 [Inhibitor 69]
0.019 µM |  | 0.038 µM | 6.8 µM | CC(C)(C)OC[C@@H](NS(=O)(=O)Cc1ccccc1)C(=O)N[C@@H](CCONC(=N)N)C(=O)NCc1ccc(C(=N)N)cc1 [Inhibitor 68]
0.016 µM | 0.89 µM | 4.3 µM | 21 µM | N=C(N)c1ccc(CNC(=O)[C@H](CCCCN)NC(=O)[C@@H](CO)NS(=O)(=O)Cc2ccccc2)cc1 [Inhibitor 10]
0.016 µM | 0.015 µM | 2.3 µM | 17 µM | C[C@H](NC(=O)[C@@H](CO)NS(=O)(=O)Cc1ccc(C(=O)O)cc1)C(=O)NCc1ccc(C(=N)N)cc1 [Inhibitor 22]
0.016 µM |  | 0.0018 µM | 4 µM | CC(C)(C)OC[C@@H](NS(=O)(=O)Cc1ccc(CC(=O)O)cc1)C(=O)N1CCC[C@H]1C(=O)NCc1ccc(C(=N)N)cc1 [Inhibitor 66]
0.014 µM |  | 0.12 µM | 61 µM | CC(C)(C)OC[C@@H](NS(=O)(=O)Cc1ccccc1)C(=O)N[C@@H](Cc1c[nH]cn1)C(=O)NCc1ccc(C(=N)N)cc1 [Inhibitor 64]
0.011 µM |  | 0.0029 µM | 6.1 µM | CC(C)(C)OC[C@@H](NS(=O)(=O)Cc1ccccc1)C(=O)N[C@@H](CCCCNC(=O)C(F)(F)F)C(=O)NCc1ccc(C(=N)N)cc1 [Inhibitor 62]
0.0035 µM | 0.3 µM | 0.18 µM | 15 µM | N=C(N)c1ccc(CNC(=O)[C@H](CCCCNC(=O)OCc2ccccc2)NC(=O)[C@@H](CO)NS(=O)(=O)Cc2ccccc2)cc1 [Inhibitor 11]
